Legend:
[1] = 4EP to 4EPS conversion by cytosolic fractions from tissues of colonized mice; type: in vitro ADME, mouse; settings: colon and liver cytosolic fractions of colonized mice, FIG. 11E
Method: 4EP to 4EPS conversion was measured by cytosolic fractions from various tissues of colonized mice (FIG. 11E).

[2] = tested on: Wildtype mice; test: Light dark box, mice injected with 4EPS; type: in vivo, mouse; settings: 30 mg/kg 4EPS potassium salt i.p. daily, 3 to 6 weeks of age, vs saline
Method: (§1) Wildtype mice were injected intraperitoneally (i.p.) with saline or 30 mg/kg 4EPS potassium salt daily from 3 to 6 weeks of age and tested for anxiety in the elevated plus maze (FIG. 4A-C), light dark box (FIG. 4D-F), and open field arena (FIG. 4G-I) assays.

[3] = tested on: Wildtype mice; test: Elevated plus maze, mice injected with 4EPS; type: in vivo, mouse; settings: 30 mg/kg 4EPS potassium salt i.p. daily, 3 to 6 weeks of age, vs saline
Method: as §1

[4] = tested on: wild-type mice; test: Open field exploration and pre-pulse inhibition assays, wild-type mice injected with 4EPS (Example 1); type: in vivo, mouse; settings: 30 mg/kg 4EPS potassium salt i.p. daily from 3 to 6 weeks of age vs saline, n=10/group
Method: To measure effects of 4EPS on wild-type mice, the wild-type mice were injected intraperitoneally (i.p.) with saline or 30 mg/kg 4EPS potassium salt daily from 3 to 6 weeks of age. Anxiety-like behavior based on center duration (See FIG. 1B) and locomotor behavior (See […]) were measured in the open field exploration assay. n=10/group. Furthermore, the potentiated startle reflex was measured in the pre-pulse inhibition (PPI) assay, and measurements were taken of startle (Vmax) (FIG. 1C) and PPI % (FIG. 1D). n=10/group.

[5] = tested on: Wildtype mice; test: Open field arena, mice injected with 4EPS; type: in vivo, mouse; settings: 30 mg/kg 4EPS potassium salt i.p. daily, 3 to 6 weeks of age, vs saline
Method: as §1

[6] = biological target: Sult1A1 (sulfotransferase family 1A member 1) (Homo sapiens, UniProt P50225); test: R&D SYSTEMS sulfotransferase assay, Sult1A1 modification of 4EP to 4EPS; type: biochemical; settings: in vitro, FIG. 11C
Method: Using R&D SYSTEMS Universal Sulfotransferase Assay Kit™, sulfation of 4-ethylphenol (4EP) or para-cresol (PC) was determined colorimetrically (FIG. 11A). Samples from the assay were pooled and analyzed by liquid chromotography mass spectrometry (LCMS) for the confirmation that 4EPS and PCS are present (FIG. 11B).
An R&D SYSTEMS assay was used to determine whether quercetin and curcumin can inhibit Sult1A1 (sulfotransferase family 1A member 1, an enzyme that catalyzes sulfate conjugation) modification of 4EP to 4EPS (FIG. 11C). […] Accordingly, it is contemplated that quercetin and curcumin in accordance with some embodiments herein can inhibit the production of 4EPS in a subject in need thereof.

Sult1A1 (sulfotransferase family 1A member 1), sequence (P50225 whole entry, species assumed): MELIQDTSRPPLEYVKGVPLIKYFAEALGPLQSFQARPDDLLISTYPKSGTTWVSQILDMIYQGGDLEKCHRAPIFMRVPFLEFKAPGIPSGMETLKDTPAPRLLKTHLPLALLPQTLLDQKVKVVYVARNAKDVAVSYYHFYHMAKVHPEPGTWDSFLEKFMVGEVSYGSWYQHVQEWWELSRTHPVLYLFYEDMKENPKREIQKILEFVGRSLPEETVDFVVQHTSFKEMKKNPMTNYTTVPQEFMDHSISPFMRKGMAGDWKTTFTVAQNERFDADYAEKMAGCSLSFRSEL

With `CCc1ccc(O)cc1` [4EP, 4-ethylphenol] the “conversion of 4EP to 4EPS” value [1] was “Substantial conversion”.

For `CCc1ccc(OS(=O)(=O)[O-])cc1.[K+]` [4EPS, 4-ethylphenyl sulfate], the “frequency in the light (light dark box)” value [2] was “decreased”, the “total duration in the light (light dark box)” value [2] was “decreased” and the “duration in the open (elevated plus maze)” value [3] was “decreased”. The “total terminus duration (elevated plus maze)” value [3] was “decreased”, the “anxiety behaviors (open field center duration, startle, PPI)” value [4] was “significantly increased anxiety behaviors” and the “distance moved (open field arena)” value [5] was “comparable to saline-injected mice”. The “total duration in center (open field arena)” value [5] was “decreased”.

With `COc1cc(/C=C/C(=O)CC(=O)/C=C/c2ccc(O)c(OC)c2)ccc1O` [curcumin] the “inhibition of sulfation of 4EP” value [6] was “inhibit”.

With `O=c1c(O)c(-c2ccc(O)c(O)c2)oc2cc(O)cc(O)c12` [quercetin] the “inhibition of sulfation of 4EP” value [6] was “inhibit”.
